# Results taken from ChEMBL document CHEMBL4130638, “Discovery of the Polyamine Conjugate with Benzo[ cd]indol-2(1 H)-one as a Lysosome-Targeted Antimetastatic Agent” (J Med Chem, 2018).
# Calls of active or inactive are those of the source. The calls are words filed in the database; no cut-off is given here.
# Key:
# CT26 [1] = experiment: Induction of autophagy in mouse CT26 cells at 5 to 20 uM after 24 hrs by Lyso staining based flow cytometry; format: functional, cell-based
# HCT-116 [2] = experiment: Upregulation of cleaved caspase-3 protein expression in human HCT116 cells up to 10 uM after 24 hrs in presence of autophagy inhibitor 3-MA by Western blot method; format: functional, cell-based
# SMMC-7721 = experiment: Growth inhibition of human SMMC7721 cells after 48 hrs by MTT assay; format: functional, cell-based; conditions: SMMC-7721, 48 h
# HCT-116 [3] = experiment: Antimigratory activity against human HCT116 cells after 24 hrs by crystal violet staining based transwell assay; format: functional, cell-based
# HCT-116 [4] = experiment: Induction of autophagy in human HCT116 cells after 24 hrs by MDC staining based flow cytometry; format: functional, cell-based
# Mus musculus [5] = experiment: Toxicity in Balb/c mouse implanted with mouse CT26 cells assessed as increase in spleen weight at 1 mg/kg, iv for 7 consecutive days starting from day 8 post tumor implantation; format: organism-based; conditions: in vivo
# HCT-116 [6] = experiment: Induction of apoptosis in human HCT116 cells assessed as early apoptotic cells at 10 uM after 24 hrs by annexin V-FITC/propidium iodide staining based flow cytometry (reference value: 4.1%); format: functional
# HCT-116 [7] = experiment: Downregulation of beta-catenin protein expression in human HCT116 cells after 24 hrs by Western blot method; format: functional, cell-based
# Mus musculus [8] = experiment: Toxicity in Balb/c mouse implanted with mouse CT26 cells assessed as increase in liver weight at 1 mg/kg, iv for 7 consecutive days starting from day 8 post tumor implantation; format: organism-based; conditions: in vivo
# Mus musculus [9] = experiment: Toxicity in Balb/c mouse implanted with mouse CT26 cells assessed as increase in spleen weight at 1 mg/kg, iv for 14 consecutive days starting from day 8 post tumor implantation; format: organism-based; conditions: in vivo
# HCT-116 [10] = experiment: Downregulation of cathepsin-B protein expression in human HCT116 cells after 24 hrs by Western blot method; format: functional, cell-based
# HCT-116 [11] = experiment: Downregulation of MMP2 protein expression in human HCT116 cells after 24 hrs by Western blot method; format: functional, cell-based
# CT26 [12] = experiment: Induction of apoptosis in mouse CT26 cells assessed as late apoptotic cells at 10 uM after 24 hrs in presence of autophagy inhibitor 3-MA by annexin V-FITC/propidium iodide staining based flow cytometry (reference value: 2.26%); format: functional
# HCT-116 [13] = experiment: Induction of apoptosis in human HCT116 cells assessed as necrotic cells at 10 uM after 24 hrs in presence of pan-caspase inhibitor Z-VAD-FMK by annexin V-FITC/propidium iodide staining based flow cytometry (reference value: 3.9%); format: functional
# CT26 [14] = experiment: Induction of autophagy in mouse CT26 cells after 24 hrs by MDC staining based flow cytometry; format: functional, cell-based
# HCT-116 [15] = experiment: Induction of autophagy in human HCT116 cells at 5 to 20 uM after 24 hrs in presence of autophagy inhibitor 3-MA by Lyso staining based flow cytometry; format: functional, cell-based
# HCT-116 [16] = experiment: Upregulation of cleaved caspase-3 protein expression in human HCT116 cells up to 10 uM after 24 hrs by Western blot method; format: functional, cell-based
# Mus musculus [17] = experiment: Toxicity in Balb/c mouse implanted with mouse CT26 cells assessed as increase in liver weight at 1 mg/kg, iv for 14 consecutive days starting from day 8 post tumor implantation; format: organism-based; conditions: in vivo
# CT26 [18] = experiment: Antimetastatic activity against mouse CT26 cells implanted in Balb/c mouse assessed as inhibition of pulmonary metastasis nodules at 1 mg/kg, iv for 7 consecutive days starting from day 8 post tumor implantation measured on day 15 post tumor implantation relative to control; format: functional
# HCT-116 [19] = experiment: Induction of apoptosis in human HCT116 cells assessed as necrotic cells at 10 uM after 24 hrs by annexin V-FITC/propidium iodide staining based flow cytometry (reference value: 3.9%); format: functional
# CT26 [20] = experiment: Induction of apoptosis in mouse CT26 cells assessed as late apoptotic cells at 10 uM after 24 hrs by annexin V-FITC/propidium iodide staining based flow cytometry (reference value: 2.26%); format: functional
# HCT-116 [21] = experiment: Induction of apoptosis in human HCT116 cells assessed as live cells at 10 uM after 24 hrs in presence of autophagy inhibitor 3-MA by annexin V-FITC/propidium iodide staining based flow cytometry (reference value: 89.97%); format: functional
# CT26 [22] = experiment: Induction of autophagy in mouse CT26 cells at 10 to 20 uM after 24 hrs in presence of autophagy inhibitor 3-MA by MDC staining based flow cytometry; format: functional, cell-based
# HCT-116 [23] = experiment: Growth inhibition of human HCT116 cells at 2.5 to 7.5 uM after 24 hrs in presence of spermidine by MTT assay; format: functional, cell-based
# CT26 [24] = experiment: Antimigratory activity against mouse CT26 cells after 24 hrs by crystal violet staining based transwell assay; format: functional, cell-based
# CT26 [25] = experiment: Induction of apoptosis in mouse CT26 cells assessed as live cells at 10 uM after 24 hrs by annexin V-FITC/propidium iodide staining based flow cytometry (reference value: 89.47%); format: functional
# HCT-116 [26] = experiment: Induction of apoptosis in human HCT116 cells after 24 hrs by acridine orange and ethidium bromide staining based high content screening analysis; format: functional, cell-based
# HCT-116 [27] = experiment: Downregulation of cathepsin-D protein expression in human HCT116 cells after 24 hrs by Western blot method; format: functional, cell-based
# CT26 [28] = experiment: Induction of apoptosis in mouse CT26 cells assessed as early apoptotic cells at 10 uM after 24 hrs by annexin V-FITC/propidium iodide staining based flow cytometry (reference value: 3.91%); format: functional
# CT26 [29] = experiment: Growth inhibition of mouse CT26 cells after 24 hrs by MTT assay; format: functional, cell-based
# [30] = Drug uptake in human HCT116 cells assessed as PAT-mediated drug internalization at 2.5 to 7.5 uM after 24 hrs in presence of spermidine by high content screening analysis; format: ADME, cell-based
# HCT-116 [31] = experiment: Decrease in spermine level in human HCT116 cells at 2.5 to 10 uM after 24 hrs by G1321A fluorescence detector coupled HPLC analysis; format: functional, cell-based
# HCT-116 [32] = experiment: Induction of autophagy in human HCT116 cells at 5 to 20 uM after 24 hrs in presence of autophagy inhibitor 3-MA by MDC staining based flow cytometry; format: functional, cell-based
# HCT-116 [33] = experiment: Downregulation of cathepsin-L protein expression in human HCT116 cells after 24 hrs by Western blot method; format: functional, cell-based
# HCT-116 [34] = experiment: Upregulation of p53 protein expression in human HCT116 cells after 24 hrs by Western blot method; format: functional, cell-based
# HCT-116 [35] = experiment: Induction of autophagy in human HCT116 cells at 5 to 20 uM after 24 hrs in presence of pan-caspase inhibitor Z-VAD-FMK by MDC staining based flow cytometry; format: functional, cell-based
# HCT-116 [36] = experiment: Induction of apoptosis in human HCT116 cells assessed as late apoptotic cells after 24 hrs by annexin V-FITC/propidium iodide staining based flow cytometry; format: functional, cell-based
# CT26 [37] = experiment: Induction of apoptosis in mouse CT26 cells assessed as early apoptotic cells after 24 hrs by annexin V-FITC/propidium iodide staining based flow cytometry; format: functional, cell-based
# HepG2 = experiment: Growth inhibition of human HepG2 cells after 48 hrs by MTT assay; format: functional, cell-based; conditions: HepG2, 48 h
# [38] = molecular target: Serine/threonine-protein kinase mTOR (Homo sapiens) (UniProt P42345); experiment: Inhibition of mTOR phosphorylation in human HCT116 cells after 24 hrs by Western blot method; format: cell-based
# HCT-116 [39] = experiment: Downregulation of Bcl2 protein expression in human HCT116 cells up to 10 uM after 24 hrs in presence of autophagy inhibitor 3-MA by Western blot method; format: functional, cell-based
compound,measurement,setting,value
Cl.Cl.Cl.NCCCCNCCCCNCCCCN1C(=O)c2cccc3cccc1c23,Activity,CT26 [1],Active
same,Activity,HCT-116 [2],inactive
same,IC50,SMMC-7721,13.5 µM
same,Activity,HCT-116 [3],Dose-dependent effect
same,Activity,HCT-116 [4],Dose-dependent effect
same,Activity,Mus musculus [5],Toxic
same,Activity,HCT-116 [6],31.31%
same,Activity,HCT-116 [7],Dose-dependent effect
same,Activity,Mus musculus [8],Toxic
same,Activity,Mus musculus [9],Toxic
same,Activity,HCT-116 [10],Dose-dependent effect
same,Activity,HCT-116 [11],Dose-dependent effect
same,Activity,CT26 [12],6.59%
same,Activity,HCT-116 [13],8.07%
same,Activity,CT26 [14],Dose-dependent effect
same,Activity,HCT-116 [15],inactive
same,Activity,HCT-116 [16],Active
same,Activity,Mus musculus [17],Toxic
same,inhibition in vivo at 1 mg/kg,CT26 [18],82.5%
same,Activity,HCT-116 [19],2.97%
same,Activity,CT26 [20],23.22%
same,Activity,HCT-116 [21],56.54%
same,Activity,CT26 [22],inactive
same,growth inhibition (GI),HCT-116 [23],inactive
same,Activity,CT26 [24],Dose-dependent effect
same,Activity,CT26 [25],30.85%
same,Activity,HCT-116 [26],Dose-dependent effect
same,Activity,HCT-116 [27],Dose-dependent effect
same,Activity,CT26 [28],42.37%
same,growth inhibition (GI),CT26 [29],Dose-dependent effect
same,IC50,"CT26 [29]; CT26, 24 h",11.6 µM
same,Drug uptake,[30],Not Active
same,Activity,HCT-116 [31],Active
same,Activity,HCT-116 [32],inactive
same,Activity,HCT-116 [33],Dose-dependent effect
same,Activity,HCT-116 [34],Dose-dependent effect
same,Activity,HCT-116 [35],inactive
same,Activity,HCT-116 [36],Dose-dependent effect
same,Activity,CT26 [37],Dose-dependent effect
same,IC50,HepG2,5.28 µM
same,inhibition,[38],Dose-dependent effect
same,Activity,HCT-116 [39],inactive
